Laboratory results from patent publication US20120270237A9, “METHODS FOR THE IDENTIFICATION OF KINASE INTERACTING MOLECULES AND FOR THE PURIFICATION OF KINASE PROTEINS” (Cellzone AG, priority 2009, published 2012).

How the values were obtained:
Assay in all cases: Kinobeads competition binding, HeLa Placenta lysate mix
Set-up in all cases: capturing and identification of kinases from mixed HeLa placenta lysates; endogenous in cells; host or cells: HeLa cells mixed with placenta tissue lysate
Conditions in all cases: 10 μM free compound
MST1 = target: T1, MST1 (Homo sapiens, UniProt Q13043)
T1 sequence (Q13043 1-487): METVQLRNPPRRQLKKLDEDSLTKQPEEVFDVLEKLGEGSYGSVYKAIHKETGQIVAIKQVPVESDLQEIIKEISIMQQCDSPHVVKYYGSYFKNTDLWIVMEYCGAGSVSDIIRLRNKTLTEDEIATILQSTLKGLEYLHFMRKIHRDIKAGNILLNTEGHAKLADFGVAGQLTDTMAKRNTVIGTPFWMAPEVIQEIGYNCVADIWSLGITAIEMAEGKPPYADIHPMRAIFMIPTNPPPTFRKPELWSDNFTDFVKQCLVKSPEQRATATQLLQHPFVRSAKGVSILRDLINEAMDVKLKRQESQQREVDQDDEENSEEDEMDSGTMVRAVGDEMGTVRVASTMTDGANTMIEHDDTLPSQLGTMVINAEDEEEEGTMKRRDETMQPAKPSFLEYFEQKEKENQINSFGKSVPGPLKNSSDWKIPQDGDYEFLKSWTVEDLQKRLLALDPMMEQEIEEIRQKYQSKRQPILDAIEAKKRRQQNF
Protocol: (§1) To one aliquot of cell lysate 10 μM of the free compound (FIG. 3, CZC31326) was added and allowed to bind to proteins in the lysate. Then the affinity matrix with the immobilized compound was added to capture proteins that were not interacting with the previously added free compound. Beads were separated from the lysate and bead bound proteins were eluted in SDS sample buffer and subsequently separated by SDS-Polyacrylamide gel electrophoresis (FIG. 10). Suitable gel bands were cut out and subjected to in-gel proteolytic digestion with trypsin. The second lysate aliquot was processed identically, however no free compound was added (DMSO solvent control). Peptides originating from samples 1 and 2 were labeled with iTRAQ reagents (iTRAQ 114 and iTRAQ 117) and the combined samples were analyzed with a nano-flow liquid chromatography system coupled online to a tandem mass spectrometer (LC-MS/MS) experiment followed by iTRAQ reporter ion quantification in the MS/MS spectra as described in Example 2.

PKCa = PKCa (Homo sapiens, UniProt P17252)
Protocol: as §1

MLK4 = MLK4 (Homo sapiens, UniProt Q5TCX8)
Chain of MLK4 (Q5TCX8 whole entry): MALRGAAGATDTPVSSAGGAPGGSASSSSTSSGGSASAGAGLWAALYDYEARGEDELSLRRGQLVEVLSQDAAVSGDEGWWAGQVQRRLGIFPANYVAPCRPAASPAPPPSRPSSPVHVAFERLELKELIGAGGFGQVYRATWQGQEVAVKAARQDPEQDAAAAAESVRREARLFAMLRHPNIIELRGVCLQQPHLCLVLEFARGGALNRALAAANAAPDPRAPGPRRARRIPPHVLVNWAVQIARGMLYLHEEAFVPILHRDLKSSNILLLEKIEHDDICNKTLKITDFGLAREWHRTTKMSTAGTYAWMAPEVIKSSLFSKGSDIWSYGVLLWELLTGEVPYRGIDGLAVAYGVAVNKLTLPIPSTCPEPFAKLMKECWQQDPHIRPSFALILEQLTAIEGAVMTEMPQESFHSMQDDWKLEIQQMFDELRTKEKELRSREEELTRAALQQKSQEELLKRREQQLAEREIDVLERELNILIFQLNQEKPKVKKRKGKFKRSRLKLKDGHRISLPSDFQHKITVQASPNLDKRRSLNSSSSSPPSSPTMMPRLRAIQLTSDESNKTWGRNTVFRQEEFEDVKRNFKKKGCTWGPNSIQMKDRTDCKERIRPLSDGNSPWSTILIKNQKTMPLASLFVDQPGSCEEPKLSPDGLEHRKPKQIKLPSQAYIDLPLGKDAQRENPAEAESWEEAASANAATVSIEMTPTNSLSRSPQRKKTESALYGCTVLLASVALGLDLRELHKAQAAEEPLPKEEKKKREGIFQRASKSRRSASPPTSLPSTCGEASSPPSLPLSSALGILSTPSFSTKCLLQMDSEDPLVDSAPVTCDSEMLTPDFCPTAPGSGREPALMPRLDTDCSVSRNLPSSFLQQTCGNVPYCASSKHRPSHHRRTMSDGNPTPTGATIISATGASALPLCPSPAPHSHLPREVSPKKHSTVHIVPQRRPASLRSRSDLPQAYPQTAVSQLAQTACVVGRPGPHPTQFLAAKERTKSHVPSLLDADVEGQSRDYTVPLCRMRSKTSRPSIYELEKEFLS
Protocol: as §1

PYK2 = PYK2 (Homo sapiens, UniProt Q14289)
Chain of PYK2 (Q14289 whole entry): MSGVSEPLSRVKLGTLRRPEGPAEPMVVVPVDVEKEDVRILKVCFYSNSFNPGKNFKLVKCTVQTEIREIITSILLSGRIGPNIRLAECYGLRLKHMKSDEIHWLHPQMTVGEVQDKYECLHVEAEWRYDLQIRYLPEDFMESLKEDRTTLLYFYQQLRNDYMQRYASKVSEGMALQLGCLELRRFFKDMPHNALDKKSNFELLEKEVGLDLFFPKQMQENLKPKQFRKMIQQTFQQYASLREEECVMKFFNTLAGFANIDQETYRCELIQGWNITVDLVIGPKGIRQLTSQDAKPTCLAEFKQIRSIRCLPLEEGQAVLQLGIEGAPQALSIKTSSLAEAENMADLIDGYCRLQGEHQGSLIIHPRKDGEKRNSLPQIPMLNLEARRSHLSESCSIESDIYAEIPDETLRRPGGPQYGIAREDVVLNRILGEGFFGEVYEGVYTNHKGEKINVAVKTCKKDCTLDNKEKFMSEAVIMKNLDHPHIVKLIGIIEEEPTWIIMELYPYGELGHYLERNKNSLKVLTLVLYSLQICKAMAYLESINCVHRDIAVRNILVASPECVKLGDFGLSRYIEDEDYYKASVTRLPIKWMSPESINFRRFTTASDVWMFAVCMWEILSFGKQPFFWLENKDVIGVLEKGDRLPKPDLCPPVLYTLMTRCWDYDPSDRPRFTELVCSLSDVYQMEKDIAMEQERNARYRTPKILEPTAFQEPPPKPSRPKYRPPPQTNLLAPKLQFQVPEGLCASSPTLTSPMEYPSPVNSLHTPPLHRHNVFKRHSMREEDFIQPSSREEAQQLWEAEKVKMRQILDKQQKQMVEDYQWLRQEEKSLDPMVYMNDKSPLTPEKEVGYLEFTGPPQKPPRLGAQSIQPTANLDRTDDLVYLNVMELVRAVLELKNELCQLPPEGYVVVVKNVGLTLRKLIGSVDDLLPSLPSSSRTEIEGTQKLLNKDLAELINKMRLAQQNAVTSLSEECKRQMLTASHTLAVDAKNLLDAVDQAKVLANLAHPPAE
Protocol: as §1

PLK1 = PLK1 (Homo sapiens, UniProt P53350)
Chain of PLK1 (P53350 whole entry): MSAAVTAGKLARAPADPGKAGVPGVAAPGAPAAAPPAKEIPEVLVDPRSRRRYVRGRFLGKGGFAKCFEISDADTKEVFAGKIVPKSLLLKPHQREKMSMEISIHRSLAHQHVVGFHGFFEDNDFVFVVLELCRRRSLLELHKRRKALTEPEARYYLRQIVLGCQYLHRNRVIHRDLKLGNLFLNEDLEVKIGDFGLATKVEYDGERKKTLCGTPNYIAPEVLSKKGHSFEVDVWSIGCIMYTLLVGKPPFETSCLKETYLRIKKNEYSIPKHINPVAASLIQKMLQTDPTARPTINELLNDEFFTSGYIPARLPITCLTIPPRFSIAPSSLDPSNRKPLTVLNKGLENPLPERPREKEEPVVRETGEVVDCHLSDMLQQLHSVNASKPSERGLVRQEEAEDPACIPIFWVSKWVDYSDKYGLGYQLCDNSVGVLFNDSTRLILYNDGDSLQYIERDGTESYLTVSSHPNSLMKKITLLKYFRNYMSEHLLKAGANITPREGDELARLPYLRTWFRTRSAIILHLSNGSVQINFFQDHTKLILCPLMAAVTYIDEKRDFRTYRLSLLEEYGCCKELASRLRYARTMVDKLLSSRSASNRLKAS
Protocol: as §1

PHKg2 = target: T2, PHKg2 (Homo sapiens, UniProt P15735)
T2 sequence (P15735 1-406): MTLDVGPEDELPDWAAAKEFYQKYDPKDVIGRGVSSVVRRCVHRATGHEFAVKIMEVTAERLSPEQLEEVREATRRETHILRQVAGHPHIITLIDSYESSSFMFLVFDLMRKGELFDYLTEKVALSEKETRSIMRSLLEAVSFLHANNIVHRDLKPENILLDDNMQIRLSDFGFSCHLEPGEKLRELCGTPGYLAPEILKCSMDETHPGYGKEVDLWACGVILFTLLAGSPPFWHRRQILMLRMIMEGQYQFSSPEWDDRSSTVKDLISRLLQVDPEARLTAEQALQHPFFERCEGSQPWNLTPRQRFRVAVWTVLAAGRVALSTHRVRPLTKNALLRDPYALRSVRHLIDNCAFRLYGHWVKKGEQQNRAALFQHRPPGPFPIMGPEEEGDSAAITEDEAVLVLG
Protocol: as §1

RSK2 = RSK2 (Homo sapiens, UniProt P51812)
Protocol: as §1

SLK = SLK (Homo sapiens, UniProt Q9H2G2)
Chain of SLK (Q9H2G2 whole entry): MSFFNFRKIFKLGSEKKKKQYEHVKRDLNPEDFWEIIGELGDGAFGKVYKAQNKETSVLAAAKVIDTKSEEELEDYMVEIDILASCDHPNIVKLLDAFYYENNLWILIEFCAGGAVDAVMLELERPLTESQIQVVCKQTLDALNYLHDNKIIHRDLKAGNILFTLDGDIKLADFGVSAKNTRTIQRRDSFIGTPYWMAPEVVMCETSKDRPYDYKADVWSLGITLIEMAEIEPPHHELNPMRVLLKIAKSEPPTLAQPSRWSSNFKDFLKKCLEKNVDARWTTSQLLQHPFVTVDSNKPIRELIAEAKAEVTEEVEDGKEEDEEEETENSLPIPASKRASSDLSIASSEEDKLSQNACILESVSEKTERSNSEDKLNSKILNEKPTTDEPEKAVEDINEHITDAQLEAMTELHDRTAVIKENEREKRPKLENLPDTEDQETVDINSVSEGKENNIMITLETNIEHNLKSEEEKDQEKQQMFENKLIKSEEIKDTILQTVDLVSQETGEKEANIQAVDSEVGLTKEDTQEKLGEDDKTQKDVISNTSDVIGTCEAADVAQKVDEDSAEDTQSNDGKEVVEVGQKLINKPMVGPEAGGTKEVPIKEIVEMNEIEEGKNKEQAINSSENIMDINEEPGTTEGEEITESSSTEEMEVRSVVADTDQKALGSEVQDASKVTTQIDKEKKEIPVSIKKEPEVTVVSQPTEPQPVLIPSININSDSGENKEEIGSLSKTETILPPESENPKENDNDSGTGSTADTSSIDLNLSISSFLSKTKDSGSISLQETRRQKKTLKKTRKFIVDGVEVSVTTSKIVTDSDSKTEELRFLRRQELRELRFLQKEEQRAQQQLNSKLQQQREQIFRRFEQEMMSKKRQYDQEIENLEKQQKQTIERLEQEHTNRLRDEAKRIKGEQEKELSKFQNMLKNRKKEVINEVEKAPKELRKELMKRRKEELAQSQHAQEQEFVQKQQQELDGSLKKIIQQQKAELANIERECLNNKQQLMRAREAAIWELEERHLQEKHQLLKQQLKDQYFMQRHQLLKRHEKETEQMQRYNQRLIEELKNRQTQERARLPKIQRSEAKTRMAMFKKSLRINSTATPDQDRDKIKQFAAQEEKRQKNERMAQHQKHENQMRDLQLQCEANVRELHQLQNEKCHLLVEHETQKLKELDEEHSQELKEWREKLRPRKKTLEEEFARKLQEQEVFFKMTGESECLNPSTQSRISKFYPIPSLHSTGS
Protocol: as §1

SYK = SYK (Homo sapiens, UniProt P43405)
Protocol: as §1

PKN2 = PKN2 (Homo sapiens, UniProt Q16513)
Chain of PKN2 (Q16513 whole entry): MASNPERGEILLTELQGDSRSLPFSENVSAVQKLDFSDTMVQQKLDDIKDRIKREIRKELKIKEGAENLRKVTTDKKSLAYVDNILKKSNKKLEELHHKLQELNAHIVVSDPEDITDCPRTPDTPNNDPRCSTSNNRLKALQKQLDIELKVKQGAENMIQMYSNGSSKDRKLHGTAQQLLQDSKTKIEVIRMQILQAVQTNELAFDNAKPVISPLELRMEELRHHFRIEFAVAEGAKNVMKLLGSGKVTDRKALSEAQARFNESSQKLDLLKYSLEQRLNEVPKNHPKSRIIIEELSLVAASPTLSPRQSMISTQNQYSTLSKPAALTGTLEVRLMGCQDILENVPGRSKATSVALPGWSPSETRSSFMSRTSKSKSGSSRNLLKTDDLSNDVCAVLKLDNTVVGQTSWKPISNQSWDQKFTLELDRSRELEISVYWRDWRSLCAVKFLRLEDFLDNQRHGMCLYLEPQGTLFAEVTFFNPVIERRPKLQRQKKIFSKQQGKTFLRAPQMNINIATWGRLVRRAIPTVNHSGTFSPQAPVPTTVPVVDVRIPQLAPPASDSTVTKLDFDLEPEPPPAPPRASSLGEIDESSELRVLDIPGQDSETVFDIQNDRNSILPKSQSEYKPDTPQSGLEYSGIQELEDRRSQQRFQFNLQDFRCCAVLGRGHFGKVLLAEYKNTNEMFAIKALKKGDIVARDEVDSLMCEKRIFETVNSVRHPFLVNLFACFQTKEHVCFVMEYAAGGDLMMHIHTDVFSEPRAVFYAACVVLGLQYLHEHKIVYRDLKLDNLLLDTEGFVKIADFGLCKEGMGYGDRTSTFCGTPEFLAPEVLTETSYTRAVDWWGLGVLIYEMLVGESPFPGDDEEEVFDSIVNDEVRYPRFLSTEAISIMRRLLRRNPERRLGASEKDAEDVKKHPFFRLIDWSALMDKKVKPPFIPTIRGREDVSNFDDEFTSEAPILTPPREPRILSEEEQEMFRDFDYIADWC
Protocol: as §1

Competition % (MST1): 94.6%
inhibition at 10 µM (PKCa): 94.9%
inhibition at 10 µM (MLK4): 88.9%
inhibition at 10 µM (PYK2): 92.7%
inhibition at 10 µM (PLK1): 94.7%
inhibition at 10 µM (PHKg2): 89.9%
inhibition at 10 µM (RSK2): 96%
inhibition at 10 µM (SLK): 93.2%
Competition % (SYK): 93.4%
inhibition at 10 µM (PKN2): 94%
SMILES: CS(=O)(=O)Nc1ccccc1Nc1nc(Nc2cccc(OCCN)c2)ncc1Cl [CZC31326, N-(2-(2-(3-(2-aminoethoxy)phenylamino)-5-chloropyrimidin-4-ylamino)phenyl)methanesulfonamide]
